# According to the supplement of paper PMC10307832:
# Assays:
# Experiment in all cases: relative viability (nuclei count vs DMSO), 5 days (fraction); higher = more cells survive
# [1] = compound: C1/C(=C\C2=CC=CS2)/C(=O)/C(=C/C3=CC=CS3)/C1 + Nc1ncn([C@H]2C[C@H](O)[C@@H](CO)O2)c(=O)n1 [Decitabine] (partner 2 µM)
# Summary of the method: (§1)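 Relative viability equals treated-well nuclei counts divided by vehicle-well nuclei counts. Counts came from 4× images of lung cancer cell lines grown in 1536-well plates for 5 days after pin-tool dosing on the day after seeding. Dosing used one drug alone or a fixed anchor-drug dose plus five library-drug doses (not always all listed) in √10 steps, and values are medians of duplicate plates.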
# [2] = compound: C[C@]12O[C@H](C[C@]1(O)CO)n1c3ccccc3c3c4c(c5c6ccccc6n2c5c31)CNC4=O [Lestaurtinib] + C[C@@H](Oc1cc(-c2cnn(C3CCNCC3)c2)cnc1N)c1c(Cl)ccc(F)c1Cl [Crizotinib] (partner 1 µM)
# Summary of the method: as §1
# TPCA-1 + Olaparib = compound: C1=CC(=CC=C1C2=CC(=C(S2)NC(=O)N)C(=O)N)F [TPCA-1] + O=C(c1cc(Cc2n[nH]c(=O)c3ccccc23)ccc1F)N1CCN(C(=O)C2CC2)CC1 [Olaparib] (partner 8 µM)
# Summary of the method: as §1
# [3] = compound: C[C@]12O[C@H](C[C@]1(O)CO)n1c3ccccc3c3c4c(c5c6ccccc6n2c5c31)CNC4=O [Lestaurtinib] + C[C@]1(O)C[C@@H](c2nc(-c3ccc4ccc(-c5ccccc5)nc4c3)c3c(N)nccn32)C1 [Linsitinib] (partner 1 µM)
# Summary of the method: as §1
Cell Line,relative viability ([1]; first compound 0.2 µM),relative viability ([1]; first compound 0.6325 µM),relative viability ([1]; first compound 2 µM),relative viability ([1]; first compound 6.325 µM),relative viability ([1]; first compound 20 µM),relative viability ([2]; first compound 0.005 µM),relative viability ([2]; first compound 0.01581 µM),relative viability ([2]; first compound 0.05 µM),relative viability ([2]; first compound 0.1581 µM),relative viability ([2]; first compound 0.5 µM),relative viability (TPCA-1 + Olaparib; first compound 0.04 µM),relative viability (TPCA-1 + Olaparib; first compound 0.1265 µM),relative viability (TPCA-1 + Olaparib; first compound 0.4 µM),relative viability (TPCA-1 + Olaparib; first compound 1.265 µM),relative viability (TPCA-1 + Olaparib; first compound 4 µM),relative viability ([3]; first compound 0.005 µM),relative viability ([3]; first compound 0.01581 µM),relative viability ([3]; first compound 0.05 µM),relative viability ([3]; first compound 0.1581 µM),relative viability ([3]; first compound 0.5 µM)
HCC-44,0.946,1,0.881,0.844,0.973,0.878,0.822,0.685,0.929,0.607,0.983,0.938,0.95,0.908,0.937,0.597,0.725,0.577,0.88,0.366
HCC-78,0.653,0.763,0.755,0.714,0.686,0.318,0.396,0.318,0.287,0.267,0.917,0.844,0.892,1.01,0.493,0.53,0.419,0.413,0.225,0.234
HCC-366,0.296,0.329,0.341,0.369,0.336,0.711,0.649,0.418,0.758,0.219,–,0.304,0.37,0.348,0.239,0.678,0.694,0.28,0.257,0.109
HCC-827,0.316,0.38,0.377,0.28,0.308,0.911,1.08,0.85,0.71,0.335,0.678,0.62,0.772,0.609,0.367,0.913,0.996,0.87,0.857,0.762
HOP-62,0.211,0.202,0.199,0.221,0.202,0.905,0.919,0.972,0.721,0.18,0.333,0.552,0.317,0.338,0.14,0.838,0.994,0.995,1.05,0.891
IA-LM,–,–,–,–,–,0.862,1.06,1.14,0.921,0.415,0.818,0.834,0.846,0.765,0.72,0.459,1.02,0.927,0.792,0.553
LC-2-ad,0.861,0.823,0.797,0.666,0.748,0.467,0.325,0.433,0.366,0.251,0.689,0.783,0.688,0.745,0.578,0.824,0.819,0.372,0.323,0.157
LCLC-97TM1,0.25,0.241,0.219,0.173,0.19,0.382,0.293,0.241,0.259,0.149,0.301,0.237,0.374,0.346,0.216,0.2,0.172,0.153,0.135,0.113
